Series [1] relates to deoxymyoglobin (deoxy-Mb). Briefly: Myoglobin assay: conversion of deoxy-Mb to MbCO on direct addition of metal carbonyl. It counts as biochemical, horse. Particulars: direct addition to myoglobin solution (66 μM), no light. On the procedure: The release of CO from metal carbonyl complexes was assessed spectrophotometrically by measuring the conversion of deoxymyoglobin (deoxy-Mb) to carbonmonoxy myoglobin (MbCO). MbCO has a distinctive absorption spectrum between 500 and 600 nm, and changes at 540 nm were used to quantify the amount of CO liberated. Myoglobin solutions (66 μM final concentration) were prepared freshly by dissolving the protein in 0.04 M phosphate buffer (pH 6.8). Sodium dithionite (0.1%) was added to convert myoglobin to deoxy-Mb prior to each reading. All the spectra were measured using a Helios a spectrophotometer.
Various metal carbonyl complexes were tested for their ability to elicit MbCO formation when added directly to a deoxy-Mb solution. To different extents, [Ru(CO)3Cl2]2, [Ru(CO)2(DMSO)2Cl2], [Ru(CO)3Cl2(cytosine)] and […] all released CO when added directly to the Mb solution.
The metal carbonyl complex was solubilized in DMSO (9.7 mM stock solution), aliquots of 2 to 32 μl were added directly to 1 ml of deoxy-Mb solutions (66 μM) and absorption spectrum determined immediately after mixing the samples by inversion.

For series [2], the system named is deoxymyoglobin (deoxy-Mb). The experiment in a line: Light-induced CO release diffusing through a membrane into myoglobin solution. Type of series: biochemical, horse. Particulars: for MbCO formation upon illumination: carbonyl solution exposed to cold light, gas diffusing through membrane. On the procedure:
Therefore release of CO was induced by exposing these metal carbonyl complexes to a cold light source and allowing the gas to diffuse through a membrane before reacting with myoglobin as shown in FIG. 1.
Five hundred microliters of iron pentacarbonyl ([Fe(CO)5], 99.9%) or 1 ml of dimanganese decacarbonyl ([Mn2(CO)10], 13 mM in DMSO) (see also chemical structure) were placed as carbonyl solution 2 in a plastic tube 1. A cell culture insert 3 (Costar) was sealed on top in order to create two separate chambers with a 0.6 cm air space between the solution 2 and an insert membrane 6 (Anapore™ 0.4 μm). 1.5 ml of deoxy-Mb solution (66 μM) was placed in the insert which was covered with Parafilm™ 5. The carbonyl solution was then exposed to cold light from a source 7 to stimulate CO release, allowing the gas to diffuse through the membrane 6 into the myoglobin solution 4. Aliquots of the myoglobin solution 4 were taken at different times and the conversion of deoxy-Mb to MbCO measured spectrophotometrically.

The subject of series [3] is Rat vascular smooth muscle cells. The experiment in a line: Cell viability of vascular smooth muscle cells (colorimetric assay). Particulars: 0-100 μM, 24 h in complete medium. Type of series: cell-based. On the procedure:
Rat vascular smooth muscle cells were obtained from the Coriell Cell Repository (Camden, N.J., USA) and grown in Dulbecco's […] (MEM) supplemented with 20% foetal calf serum, 2×MEM vitamins, 2×MEM non-essential and essential amino acids, penicillin (100 units/ml) and streptomycin (0.1 mg/ml). Confluent cells were treated with different concentrations of metal carbonyl (introduced as DMSO solution—see section B) for various times and cell viability was assessed using a colorimetric assay kit from Promega (Madison, Wis., USA) as previously described (47) after 3 or 24 h incubation, or after 3 h exposure to the agents followed by 21 h incubation in complete media. Results are expressed as the mean±s.e.m. of 6 independent experiments and differences were considered statistically significant at P<0.05 (*).

A further series deals with isolated rat hearts. To be noted: L-NAME 25 μM perfusion. On the procedure: Langendorff heart preparations were performed using male Lewis rats (300-350 g) as previously described by our group (35). […] (pH 7.4). Coronary perfusion pressure (CPP), a parameter indicative of coronary vessel contractility, was continuously measured by a pressure transducer connected to the aortic cannula and data analyzed with an Acknowledge software (BIOPAC System Inc.).
Hearts removed either from control rats (vehicle-treated) or from animals that were pre-treated with the heme oxygenase-1 inducer hemin (75 μmol/kg, i.p.) the day before, were initially equilibrated for 20 min on the Langendorff apparatus and then perfused with L-NAME (25 μM final concentration) to elicit vasoconstriction. The extent of CPP increase by L-NAME was also monitored over time in hemin-treated animals that received a heme oxygenase inhibitor (SnPPIX, 40 μmol/kg) 1 h prior to heart excision and in control hearts that were perfused with buffer supplemented with [Mn2(CO)10] (13 μM final concentration). Since [Mn2(CO)10] releases CO only by photodissociation, Krebs buffer containing [Mn2(CO)10] was exposed to a cold light source immediately before entering the aortic cannula.

The nature of series [4]: L-NAME-induced increase in mean arterial pressure in anaesthetised Lewis rats. Type of series: in vivo, rat. To be noted: L-NAME 30 μmol/kg i.v.; [Ru(CO)3Cl2]2 60 μmol/kg i.v. 1 h before; hemin 75 μmol/kg i.p. 24 h before; SnPPIX 40 μmol/kg i.p. On the procedure:
Lewis rats (280-350 g) were anaesthetised by intramuscular injection of 1 ml/kg Hypnorm (fentanyl 0.315 mg/ml and fluanisone 10 mg/ml) followed 5 min later by an intraperitoneal injection of 5 mg/kg diazepam. Specially designed femoral artery and venous catheters were then surgically implanted as previously described (40). The arterial cannula was connected to a Grass pressure transducer and blood pressure monitored continuously using a polygraph recorder. Experiments were conducted on anaesthetized animals and recordings were made within 30 min of the surgical procedure.
Control rats (vehicle-treated) and animals that were pre-treated with hemin (75 μmol/kg, i.p) 24 h prior to blood pressure monitoring were then administered with an intravenous injection of 30 μmol/Kg L-NAME to elicit an increase in mean arterial pressure. The extent of blood pressure increase by L-NAME was also monitored over time in hemin-treated animals that received SnPPIX (40 μmol/kg, i.p.) and in control rats previously injected with [Ru(CO)3Cl2]2 (60 μmol/kg, i.v.). In these two groups, SnPPIX or [Ru(CO)3Cl2]2 were administered to animals 1 h prior to L-NAME injection.

The subject of a further series is HO-1. The experiment in a line: Expression of heme oxygenase-1 in rat hearts (immunostaining, Northern blot). Type of series: in vivo. Particulars: 24 h after hemin treatment, i.p. The protocol: For immunohistochemistry analysis, sections of heart muscles (5 μm thickness) were treated with 0.3% H2O2 in methanol to block endogenous peroxidase activity. Immunohistochemical staining was performed using rabbit polyclonal antibody against HO-1 (1:1000 dilution) as previously described (23). The presence of HO-1 was indicated by the development of a brown color. For Northern blot analysis, cardiac tissue was ground in a mortar under liquid nitrogen and suspended in guanidinium thiocyanate lysis buffer, Total RNA was then extracted using a modification of the method described by Chomczynski and Sacchi (49). RNA was run on a 1.3% denaturing agarose gel containing 2.2 M formaldehyde and transferred onto a nylon membrane overnight. The membrane was hybridized using [α-^32P]dCTP-labelled cDNA probes to rat HO-1 and GAPDH genes and bands analyzed using a densitometer as previously described (23, 50).
Hearts were removed from Lewis rats 24 h after treatment with vehicle (control) or hemin ([…], i.p.) and immunostaining for HO-1 was assessed. For Northern blot analysis, rats were treated with hemin (75 μmol/kg, i.p.) and hearts removed at different time points to assess HO-1 mRNA levels (+ve, positive control).

Where two headings read alike, the source gives them in different places.

For `[C-]#[O+].[C-]#[O+].[C-]#[O+].[C-]#[O+].[C-]#[O+].[Fe]` [[Fe(CO)5], iron pentacarbonyl], in series [1], the “MbCO formation / CO release when added directly to deoxy-Mb solution” value is “did not result in any appreciable formation of carbonmonoxy myoglobin”. The “MbCO formation upon illumination” value in series [2] is reported as “gradual increase in MbCO formation observed over time”.

Take `[C-]#[O+].[C-]#[O+].[C-]#[O+].[C-]#[O+].[C-]#[O+].[C-]#[O+].[C-]#[O+].[C-]#[O+].[C-]#[O+].[C-]#[O+].[Mn].[Mn]` [[Mn2(CO)10], dimanganese decacarbonyl]: the “MbCO formation / CO release when added directly to deoxy-Mb solution” value in series [1] is “did not result in any appreciable formation of carbonmonoxy myoglobin”. Further, in series [2] (13 μmol/ml, continuous exposure to light), the “time to complete saturation of the myoglobin solution” value was “approximately 40 min”. For the same molecule, the “MbCO formation upon illumination” value in series [2] is “gradual increase in MbCO formation observed over time”. Also, the “cytotoxicity on smooth muscle cells” value in series [3] is “no major cytotoxicity”. Moreover, the “effect on L-NAME-mediated vasoconstriction / rise in CPP” value in the series with isolated rat hearts (listed as (Mn2(CO)10)) was “unaffected”; with isolated rat hearts (listed as [Mn2(CO10]) it was “significantly delayed vasoconstriction and maintained CPP at much lower levels at the end of perfusion”.

Turning to `C=CC1=C(C)c2cc3[n-]c(cc4[n-]c(cc5nc(cc1n2)C(C)=C5C=C)c(C)c4CCC(=O)O)c(CCC(=O)O)c3C.[Cl-].[Fe+3]` [hemin, ferriprotoporphyrin IX chloride], in the series on isolated rat hearts, the “effect on L-NAME-mediated vasoconstriction / rise in CPP” value is “markedly attenuated”. Moreover, in series [4], the “effect on L-NAME-induced increase in blood pressure” value is “significant suppression”. Further, the “HO-1 protein and mRNA expression in hearts” value in the series on HO-1 is reported as “highly expressed”.

These data come from US8236339B2, “Therapeutic delivery of carbon monoxide” (priority 2001, dated 2012).
